Legend:
[1] = Fluorescence polarisation ratio of fluorophores, commercial fluorescence spectrometer with two polarising filters; format: physicochemical; conditions: average of 20 replicate readings, cuvette
From the text: A standard commercial fluorescence spectrometer (LS50-B, Perkin Elmer) was used to carry out conventional measurements of fluorescence, scattered light intensity and for obtaining excitation and emission spectra, with a 1 cm path length acrylic cuvette (not shown). A yellow Schott glass filter (not shown) (YG495, thickness=3 mm) was placed within the sample chamber directly in front of the window of a PMT, in order to block excitation light scattered towards the PMT by yeast cells suspended in the cuvette. For fluorescence measurements the excitation and emission wavelengths were 490 and 520 nm respectively. […] Light intensity was recorded in arbitrary units produced directly by the instrument software.
Four fluorophores were chosen, which were close spectroscopic mimics of GFP. […] Using the commercial fluorescence spectrometer (not shown), the fluorescence excitation and emission spectra for each fluorophore and for GFP were obtained. […] HPTSA needed to be used at 20 times the concentration of fluorescein to obtain the same magnitude fluorescence signal.
To measure the fluorescence polarisation ratio (P) of the fluorophores, two polarising filters (not shown) (Grade HN38 polaroid sheet, laminated in rigid acrylic, thickness=3.4 mm) were inserted within the housing 3, one either side of the sample cuvette (Which was used in place of the flow cell 2). […]

[2] = Fluorescence polarisation by flow-injection analysis on the two-PMT apparatus; format: physicochemical; conditions: 488 nm excitation, GFP within whole GM-FF18984 yeast cells (0.005 % MMS, 18 hours), HPTSA 1×10^−7 mol l^−1 in phosphate buffer
Experimental: An air cooled argon ion laser (162LGL, LG Laser Graphics GmbH, Dieburg, Germany), provided a 488 nm excitation light beam of 5 mW after filtering (TEM00>95%, beam diameter 0.67±0.05 mm). The light beam is represented by the arrow 1 in FIG. 1. The light beam 1 was plane polarised (>100:1). A four window quartz fluorescence flow cell 2 with an internal volume of 132 μl, specially constructed by Hellma Ltd, Southend-on-Sea, UK was housed in a cubic black plastic mounting block 3 (30×30×30 mm). The mounting block 3 was built at the University of Manchester Institute of Science and Technology. […]
A 488 nm interference filter 7, (3 nm half bandwidth), was used to filter the excitation light beam 1. […] One filter 8, 9 was rotated through 90° with respect to the other, such that one PMT 5 recorded the fluorescence intensity emitted polarised parallel with respect to the excitation beam (Ill), and the other PMT 6 recorded that emitted polarised perpendicular with respect to the excitation beam (Il). […] Additional filters were optimised and used in conjunction with the polarising filters to allow the laser-induced GFP fluorescence at 517 nm to be measured, whilst rejecting the high intensity laser light at 488 nm scattered towards the detector by yeast cells suspended in the stream of liquid passing through the flow cell. […]

SMILES: O=S(=O)([O-])c1cc(O)c2ccc3c(S(=O)(=O)[O-])cc(S(=O)(=O)[O-])c4ccc1c2c34.[Na+].[Na+].[Na+] [HPTSA, 8-hydroxypyrene-1,3,6-trisulfonic acid trisodium salt]
- difference between Ill and Il [1]: less than 0.5%
- average fluorescence polarisation ratio (P) [2]: ≈ 0

Reference: patent US6509161B1, “Green fluorescent protein” (Gentronix Limited, priority 2000, dated 2003)
